Read-outs that look alike come from different tables or passages of the source.
Legend:
MCF-7 = assay: Antiproliferative activity, SRB assay, MCF-7; type: cell-based, human
Protocol: (§1) Antiproliferative activity was evaluated in various human cancer cell lines (MCF-7, PANC-1, and Caco-2) as well as a normal cell line (human dermal fibroblasts). All cell lines were obtained from the American Type Culture Collection (ATCC, Manassas, VA, USA). MCF-7, PANC-1, and Caco-2 cells were cultured in high glucose Dulbecco’s modified Eagle medium (DMEM; Eurobio Scientific, Les Ulis, France). Fibroblasts were cultured in Iscove’s modified Dulbecco’s medium (IMDM; Eurobio Scientific, Les Ulis, France). All media were supplemented with 10% fetal bovine serum, 1% L-glutamine, and 1% penicillin/streptomycin. The cell lines were maintained at 37 °C in a 5% CO2 atmosphere with 95% humidity. For the cytotoxicity experiments, cells were cultured in 96-well plates at density of 6 × 10^3 cells per well to ensure exponential growth throughout the experimental period and to ensure a linear relationship between absorbance and cell number when analyzed by the sulforhodamine B (SRB) assay. […] One hundred microliters of 10 mM Tris base solution was then added to each well, and the absorbance was recorded on a microplate reader (BioTek Instruments, Winooski, VT, USA) at 570 nm. Results were expressed as % cell viability compared to the control (untreated cells). […]

human dermal fibroblasts = assay: Antiproliferative activity, SRB assay, normal cell line; type: cell-based; conditions: Fibroblast, 72 h
Protocol: as §1

PANC-1 = assay: Antiproliferative activity, SRB assay, PANC-1; type: cell-based, human
Protocol: as §1

[1] = Pilot pharmacokinetic study after oral administration; type: in vivo; conditions: male, Balb/c, mouse, mice, oral gavage, 6 mg/kg TQ, plasma
Protocol: Thirty male Balb/c mice (8–10 weeks old) were housed in plastic cages in an air-conditioned room with free access to food and water and were fasted overnight prior to the experiment. On the day of the experiment, animals were divided into two groups and each group was administered a single dose of 6 mg/kg TQ either as suspension in ultrapure water or in the form of TQ NPs (F2-NC) via oral gavage. At 1, 2, 4, 6, and 24 h post-administration, three animals from each group were randomly selected and euthanized by diethyl ether, and blood (~1 mL) was collected from the jugular vein into heparinized plastic tubes. Blood samples were left to sit for 45 min at room temperature then centrifuged at 5500 rpm for 30 min at room temperature. Approximately 0.5 mL of plasma was collected into microtubes, and plasma samples were stored at −80 °C until further analysis. The animal protocol for this work was approved by the Animal Care and Use Committee of Al-Zaytoonah University of Jordan (decision no. 1/5/2019–2020). All work was conducted in accordance with the Helsinki guidelines for animal research and all applicable Jordanian governmental rules and guidelines.
The system consisted of a Shimadzu LCMS-8030 quadrupole mass spectrometer (Kyoto, Japan) equipped with an electrospray ionization (ESI) source, and a Shimadzu Prominence 30A Ultra-Fast Liquid Chromatography system composed of a system controller, degasser, binary pump and auto-sampler. Samples were eluted on a C8 column (5 μm, 50 × 2.1 mm) coupled with a guard column (5 μm, 10 × 2.1 mm) at 20 °C. The isocratic mobile phase consisted of acetonitrile (ACN) and 0.2% formic acid (50:50, v/v) at a flow rate of 0.2 mL min^−1 and an injection volume of 20 μL. TQ samples were ionized by the ESI source in negative ion mode ([…] spray voltage). The dwell time was set to 50 ms and the probe temperature was 400 °C. Quantification was performed using multiple reaction monitoring (MRM) of the transitions at m/z 164.0→134.1.
TQ was dissolved in ACN to make a stock solution at 1 mg mL^−1. TQ working standard solutions were prepared by serial dilutions of the stock solution in the mobile phase. Calibration curve samples were prepared by spiking the appropriate TQ working standard solutions into blank plasma obtained from untreated mice to achieve concentrations from 2 to 1000 ng mL^−1.
To 100 μL of plasma (spiked with calibration curve samples or plasma extracted from treated mice), ethyl acetate (1 mL) was added and vortex mixed for 30 s. […] Samples were then injected into the LC-MS/MS system to quantify the plasma concentration of TQ at each time point. […] Plasma t1/2 was determined by fitting the elimination phase of the plots to the first-order model.

Caco-2 = assay: Antiproliferative activity, SRB assay, Caco-2; type: cell-based, human
Protocol: as §1

[2] = design: method as in earlier work; conditions: cirsiliol from a formulation similar to F2-NC, cited from earlier work

IC50 (MCF-7; Homo sapiens, MCF7, MCF-7, 72 h, SRB assay) [µM] | IC50 (PANC-1; Homo sapiens, PANC-1, 72 h, SRB assay) [µM] | AUC(0-inf) [1] [ng·h/mL] | Cmax [1] [ng/mL] | Tmax [1] [h] | half-life ([1]; elimination phase first-order fit) [h] | IC50 (Caco-2; Homo sapiens, Caco-2, 72 h, SRB assay) [µM] | SMILES | SI (selectivity index) (MCF-7; IC50 in fibroblasts divided by IC50 in MCF-7) | IC50 (human dermal fibroblasts) [µM] | SI (selectivity index) (PANC-1; IC50 in fibroblasts divided by IC50 in PANC-1) | SI (selectivity index) (Caco-2; IC50 in fibroblasts divided by IC50 in Caco-2) | cumulative release ([2]; after 96 h) | cumulative release ([2]; within the first 48 h)
20.5 ± 3.7 | 8.8 ± 2.2 | 4670 ± 508 | 388 ± 41.5 | 4 | 5 | 30.4 ± 0.5 | CC1=CC(=O)C(C(C)C)=CC1=O [TQ, 2-isopropyl-5-methylbenzo-1,4-quinone] | 2.9 | 58.9 ± 10.3 | 6.7 | 1.9 | – | –
– | – | – | – | – | – | – | COc1cc2oc(-c3ccc(O)c(O)c3)cc(=O)c2c(O)c1OC [cirsiliol] | – | – | – | – | ~ 40% | ~ 20%

Reference: PMC7560238, “Development of a Thymoquinone Polymeric Anticancer Nanomedicine through Optimization of Polymer Molecular Weight and Nanoparticle Architecture” (Pharmaceutics, 2020)
